Experimental findings from ChEMBL document CHEMBL3745652, “Synthesis and evaluation of pretomanid (PA-824) oxazolidinone hybrids” (Bioorg Med Chem Lett, 2016) are described below.

SMILES strings stand for the structures. In brackets after ≈: the same amount, converted by molar mass. Activity calls are given as the source filed them.

One data set deals with Vero. Description: Cytotoxicity against African green monkey Vero cells by cell titer glo assay. It counts as cell-based. Particulars: Chlorocebus sabaeus. On the technique in general: Cellular ATP, detected with luciferase, serves as a proxy for viable cell number.
The nature of data set [1]: Half life in mouse liver microsomes. In kind it is ADME. Particulars: for t1/2: microsomes. A general note: Liver microsomes are a subcellular fraction often used to study metabolism.
A short description of data set [2]: Apparent permeability from apical to basolateral side in human Caco2 cells. In kind it is ADME, cell-based. The settings on record: caco-2. For orientation: Caco-2 monolayers are a common model of the intestinal barrier.
A short description of data set [3]: Apparent permeability from basolateral to apical side in human Caco2 cells. It counts as ADME, cell-based. Particulars: caco-2.
The nature of data set [4]: Plasma protein binding in human. It counts as ADME, cell-free.
Another data set has as its system Bacillus anthracis. Description: Antimicrobial activity against Bacillus anthracis. It counts as functional, organism-based.
Another data set has as its system Bacillus subtilis. The experiment in a line: Antimicrobial activity against Bacillus subtilis. In kind it is functional, organism-based.
A further data set has as its system Enterococcus faecalis. Description: Antimicrobial activity against Enterococcus faecalis. It counts as functional, organism-based.
In the next data set the test system is Staphylococcus aureus. Description: Antimicrobial activity against Staphylococcus aureus. In kind it is functional, organism-based.
For the next data set, the system named is Streptococcus pyogenes. The experiment in a line: Antimicrobial activity against Streptococcus pyogenes. In kind it is functional, organism-based.
The subject of another data set is Streptococcus pneumoniae. Description: Antimicrobial activity against Streptococcus pneumoniae. In kind it is functional, organism-based.
The test system of another data set is Acinetobacter baumannii. The experiment in a line: Antimicrobial activity against Acinetobacter baumannii. It counts as functional, organism-based.
The next data set concerns Escherichia coli. Description: Antimicrobial activity against Escherichia coli. In kind it is functional, organism-based.
A further data set relates to Klebsiella pneumoniae. The experiment in a line: Antimicrobial activity against Klebsiella pneumoniae. It counts as functional, organism-based.
Data set [5] concerns Mycobacterium tuberculosis. Description: Antimicrobial activity against Mycobacterium tuberculosis H37Rv assessed as growth inhibition after 7 days by microbroth dilution method. In kind it is functional. Particulars: 168 h.

For `O=[N+]([O-])c1cn2c(n1)OC[C@@H](OCc1ccc(N3CCSCC3)cc1)C2`, in the data set with Vero, the IC50 (usually the concentration that inhibits the measured activity by half) was 13.7 µg/mL (≈ 36.4 µM). This compound displayed a t1/2 in data set [1] of 0.07 h. In addition, the Papp (usually a coefficient for how fast a substance crosses the barrier) in data set [2] amounted to 26.68 ×10⁻⁶ cm/s; in [3], 26.13 ×10⁻⁶ cm/s. In addition, the PPB in data set [4] amounted to 74.5%. For the same compound, the outcome with Bacillus anthracis, in the data set with Bacillus subtilis, in the data set on Enterococcus faecalis, in the data set with Staphylococcus aureus, in the data set with Streptococcus pyogenes and in the data set with Streptococcus pneumoniae was inactive. For the same compound, the result with Acinetobacter baumannii, in the data set with Escherichia coli and in the data set on Klebsiella pneumoniae was inactive. Further, the MIC (usually the smallest concentration in the dilution series that meets the test's criterion for growth inhibition) in [5] turned out to be 6.25 µg/mL (≈ 16.6 µM).
Consider `O=C1CSCCN1c1ccc(CO[C@@H]2COc3nc([N+](=O)[O-])cn3C2)cc1F`, for which the IC50 in the data set on Vero was above 100 µg/mL. In [1], the t1/2 was determined as 0.6 h. In addition, the Papp stood at 33.39 ×10⁻⁶ cm/s in [2] and 37.05 ×10⁻⁶ cm/s in data set [3]. In [4], this compound registered a PPB of 77.6%. Besides, the result in the data set on Bacillus anthracis, in the data set with Bacillus subtilis, in the data set with Enterococcus faecalis, in the data set on Staphylococcus aureus, in the data set on Streptococcus pyogenes and in the data set with Streptococcus pneumoniae was inactive. Besides, the result in the data set on Acinetobacter baumannii, in the data set with Escherichia coli and in the data set with Klebsiella pneumoniae was inactive. Also, the MIC in [5] is 50 µg/mL (≈ 122 µM).
In the data set on Vero, `O=C1COCCN1c1ccc(CO[C@@H]2COc3nc([N+](=O)[O-])cn3C2)cn1` gave an IC50 above 100 µg/mL. In data set [1], this compound yielded a t1/2 above 4 h. Further, the Papp in data set [2] stood at 43.41 ×10⁻⁶ cm/s; in data set [3], 23.82 ×10⁻⁶ cm/s. Moreover, the PPB in data set [4] is 27.9%. Moreover, the result in the data set with Bacillus anthracis, in the data set on Bacillus subtilis, in the data set on Enterococcus faecalis, with Staphylococcus aureus, in the data set on Streptococcus pyogenes and with Streptococcus pneumoniae was inactive. Besides, the result with Acinetobacter baumannii, in the data set on Escherichia coli and in the data set with Klebsiella pneumoniae was inactive. Also, the MIC in data set [5] came to 3.13 µg/mL (≈ 8.34 µM).
As for `O=[N+]([O-])c1cn2c(n1)OC[C@@H](OCc1ccc(N3CCCCC3)nc1)C2`, in the data set on Vero, the IC50 was above 100 µg/mL. In addition, the t1/2 in data set [1] was 1.3 h. Also, the Papp came to 37.64 ×10⁻⁶ cm/s in data set [2] and 29.04 ×10⁻⁶ cm/s in [3]. This compound also came in with a PPB in data set [4] of 76.7%. Besides, the outcome in the data set with Bacillus anthracis, with Bacillus subtilis, in the data set on Enterococcus faecalis, in the data set on Staphylococcus aureus, in the data set on Streptococcus pyogenes and with Streptococcus pneumoniae was inactive. Besides, the result in the data set on Acinetobacter baumannii, with Escherichia coli and in the data set on Klebsiella pneumoniae was inactive. Moreover, the MIC in data set [5] was 0.78 µg/mL (≈ 2.17 µM).
`O=C1CCCCN1c1ccc(CO[C@@H]2COc3nc([N+](=O)[O-])cn3C2)cc1F`: in the data set with Vero, the IC50 was above 100 µg/mL. In [1], this compound had a t1/2 of 3.5 h. The figures for the Papp in data set [2] and in [3] were 46.26 ×10⁻⁶ cm/s and 30.45 ×10⁻⁶ cm/s, respectively. Further, in [4], the PPB is 74.8%. In addition, the result in the data set on Bacillus anthracis, in the data set on Bacillus subtilis, with Enterococcus faecalis, in the data set on Staphylococcus aureus, in the data set with Streptococcus pyogenes and in the data set on Streptococcus pneumoniae was inactive. Further, the result with Acinetobacter baumannii, with Escherichia coli and with Klebsiella pneumoniae was inactive. In data set [5], the MIC turned out to be 3.13 µg/mL (≈ 8.02 µM).
Compound `O=C1CCCCN1c1ccc(CO[C@@H]2COc3nc([N+](=O)[O-])cn3C2)cn1` had an IC50 with Vero above 100 µg/mL. The t1/2 in [1] turned out to be 20.4 h. Besides, the Papp in data set [2] worked out at 33.68 ×10⁻⁶ cm/s; in [3], 29.56 ×10⁻⁶ cm/s. This compound registered a PPB in [4] of 39.6%. In addition, the result in the data set with Bacillus anthracis, with Bacillus subtilis, in the data set with Enterococcus faecalis, in the data set with Staphylococcus aureus, in the data set with Streptococcus pyogenes and with Streptococcus pneumoniae was inactive. Further, the outcome with Acinetobacter baumannii, with Escherichia coli and in the data set with Klebsiella pneumoniae was inactive. The MIC in [5] came to 3.13 µg/mL (≈ 8.38 µM).
Regarding `O=[N+]([O-])c1cn2c(n1)OC[C@@H](OCc1ccc(N3CCCCC3)cc1)C2`, half-maximal inhibition with Vero (IC50) was put at 11.6 µg/mL (≈ 32.4 µM). The t1/2 in data set [1] amounted to 0.49 h. The values for the Papp in data set [2] and in [3] were 31.76 ×10⁻⁶ cm/s and 26.33 ×10⁻⁶ cm/s, respectively. Also, the PPB in data set [4] is recorded as 83%. In addition, the result in the data set with Bacillus anthracis, in the data set on Bacillus subtilis, in the data set with Enterococcus faecalis, in the data set with Staphylococcus aureus, in the data set with Streptococcus pyogenes and in the data set with Streptococcus pneumoniae was inactive. Further, the result in the data set with Acinetobacter baumannii, with Escherichia coli and in the data set with Klebsiella pneumoniae was inactive. The MIC in data set [5] was determined as 0.39 µg/mL (≈ 1.09 µM).
As to `O=[N+]([O-])c1cn2c(n1)OC[C@@H](OCc1ccc(N3CCCCC3)c(F)c1)C2`, the IC50 in the data set with Vero came out at 56.2 µg/mL (≈ 149 µM). In data set [1], this compound returned a t1/2 of 0.41 h. The figures for the Papp in data set [2] and in data set [3] were 35.46 ×10⁻⁶ cm/s and 28.47 ×10⁻⁶ cm/s, respectively. Further, in [4], the PPB was found to be 85.6%. Also, the result with Bacillus anthracis, in the data set with Bacillus subtilis, with Enterococcus faecalis, in the data set with Staphylococcus aureus, with Streptococcus pyogenes and in the data set with Streptococcus pneumoniae was inactive. Also, the outcome in the data set with Acinetobacter baumannii, in the data set with Escherichia coli and with Klebsiella pneumoniae was inactive. The MIC in data set [5] is below 0.2 µg/mL.
In the data set with Vero, `O=C1CCCCN1c1ccc(CO[C@@H]2COc3nc([N+](=O)[O-])cn3C2)cc1` displayed an IC50 above 100 µg/mL. Besides, in data set [1], the t1/2 was determined as 6.7 h. The results for the Papp in [2] and in [3] were 47.25 ×10⁻⁶ cm/s and 34.2 ×10⁻⁶ cm/s, respectively. In [4], this compound gave a PPB of 66.4%. In addition, the outcome with Bacillus anthracis, in the data set with Bacillus subtilis, in the data set with Enterococcus faecalis, in the data set on Staphylococcus aureus, in the data set with Streptococcus pyogenes and in the data set with Streptococcus pneumoniae was inactive. The outcome in the data set with Acinetobacter baumannii, with Escherichia coli and in the data set on Klebsiella pneumoniae was inactive. For the same compound, in data set [5], the MIC is 1.56 µg/mL (≈ 4.19 µM).
Compound `O=C1CSCCN1c1ccc(CO[C@@H]2COc3nc([N+](=O)[O-])cn3C2)cn1` had a 50% inhibitory concentration (IC50) in the data set on Vero of 15.3 µg/mL (≈ 39.1 µM). The compound also returned a t1/2 in [1] of 0.63 h. Besides, the apparent permeability coefficient (Papp) was determined as 40 ×10⁻⁶ cm/s in data set [2] and 31.44 ×10⁻⁶ cm/s in [3]. This compound also returned a PPB in data set [4] of 32.1%. Moreover, the outcome in the data set on Bacillus anthracis, in the data set with Bacillus subtilis, in the data set on Enterococcus faecalis, with Staphylococcus aureus, in the data set on Streptococcus pyogenes and in the data set on Streptococcus pneumoniae was inactive. Further, the result in the data set on Acinetobacter baumannii, in the data set with Escherichia coli and with Klebsiella pneumoniae was inactive. Further, the MIC in [5] is 50 µg/mL (≈ 128 µM).
For `O=C1CSCCN1c1ccc(CO[C@@H]2COc3nc([N+](=O)[O-])cn3C2)cc1`, the IC50 in the data set with Vero is above 100 µg/mL. For the same compound, in data set [1], the t1/2 amounted to 0.51 h. Further, the Papp in [2] is 39.56 ×10⁻⁶ cm/s; in data set [3] it was 38.05 ×10⁻⁶ cm/s. In data set [4], this compound returned a PPB of 59.8%. Also, the result in the data set with Bacillus anthracis, in the data set with Bacillus subtilis, in the data set on Enterococcus faecalis, in the data set with Staphylococcus aureus, in the data set on Streptococcus pyogenes and with Streptococcus pneumoniae was inactive. In addition, the result in the data set with Acinetobacter baumannii, in the data set on Escherichia coli and in the data set with Klebsiella pneumoniae was inactive. Also, the MIC in [5] was found to be 25 µg/mL (≈ 64 µM).
Consider `O=[N+]([O-])c1cn2c(n1)OC[C@@H](OCc1ccc(OC(F)(F)F)cc1)C2` [PRETOMANID], for which the IC50 with Vero turned out to be 44 µg/mL (≈ 122 µM). In addition, the half-life (commonly how long it takes for the measured level to halve) in [1] (liver microsomes) was 8.1 h. Besides, the Papp in data set [2] came to 31.58 ×10⁻⁶ cm/s; in data set [3] it was 13.14 ×10⁻⁶ cm/s. Besides, in data set [4], the PPB was 92.9%. The result with Bacillus anthracis, in the data set with Bacillus subtilis, in the data set with Enterococcus faecalis, with Staphylococcus aureus, in the data set with Streptococcus pyogenes and in the data set on Streptococcus pneumoniae was inactive. For the same compound, the outcome with Acinetobacter baumannii, with Escherichia coli and in the data set on Klebsiella pneumoniae was inactive. Further, the MIC in data set [5] was 0.39 µg/mL (≈ 1.09 µM).
In [4], `CC(=O)NC[C@H]1CN(c2ccc(N3CCOCC3)c(F)c2)C(=O)O1` [LINEZOLID] returned a PPB of 17.8%. The MIC in data set [5] came to 0.3 µg/mL (≈ 0.889 µM).
